According to article doi:10.1101/2020.07.01.182642v1 (biorxiv, 2020):

Key:
Conditions in all cases: binder
TTK = molecular target: T1, TTK (Homo sapiens, UniProt P33981)
T1 sequence (P33981 1-857): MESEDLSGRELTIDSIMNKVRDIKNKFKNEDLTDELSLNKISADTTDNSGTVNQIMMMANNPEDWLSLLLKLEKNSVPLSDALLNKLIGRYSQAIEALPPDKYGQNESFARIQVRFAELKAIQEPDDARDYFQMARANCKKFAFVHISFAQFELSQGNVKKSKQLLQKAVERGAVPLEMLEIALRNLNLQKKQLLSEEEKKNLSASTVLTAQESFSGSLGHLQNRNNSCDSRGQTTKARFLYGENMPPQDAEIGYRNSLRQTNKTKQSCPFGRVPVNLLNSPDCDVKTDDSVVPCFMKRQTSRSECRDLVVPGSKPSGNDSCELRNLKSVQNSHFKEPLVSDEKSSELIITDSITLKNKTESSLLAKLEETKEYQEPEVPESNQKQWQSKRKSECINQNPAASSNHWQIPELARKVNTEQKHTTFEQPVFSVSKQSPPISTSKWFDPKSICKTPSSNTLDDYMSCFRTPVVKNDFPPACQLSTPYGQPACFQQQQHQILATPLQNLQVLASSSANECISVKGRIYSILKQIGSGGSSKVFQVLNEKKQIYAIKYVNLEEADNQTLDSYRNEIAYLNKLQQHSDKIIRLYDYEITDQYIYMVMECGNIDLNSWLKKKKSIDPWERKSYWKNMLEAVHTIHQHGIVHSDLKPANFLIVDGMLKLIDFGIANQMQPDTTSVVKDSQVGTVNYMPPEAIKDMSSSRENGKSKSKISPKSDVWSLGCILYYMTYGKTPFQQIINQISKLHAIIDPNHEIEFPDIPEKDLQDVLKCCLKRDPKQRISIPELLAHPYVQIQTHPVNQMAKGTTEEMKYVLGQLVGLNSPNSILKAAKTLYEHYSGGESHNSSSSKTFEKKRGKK

PIM2 = PIM2 (Homo sapiens, UniProt Q9P1W9)
CHEK2 = CHEK2 (Homo sapiens, UniProt O96017)
STK17B = molecular target: T2, STK17B (Homo sapiens, UniProt O94768)
T2 sequence (O94768 1-372): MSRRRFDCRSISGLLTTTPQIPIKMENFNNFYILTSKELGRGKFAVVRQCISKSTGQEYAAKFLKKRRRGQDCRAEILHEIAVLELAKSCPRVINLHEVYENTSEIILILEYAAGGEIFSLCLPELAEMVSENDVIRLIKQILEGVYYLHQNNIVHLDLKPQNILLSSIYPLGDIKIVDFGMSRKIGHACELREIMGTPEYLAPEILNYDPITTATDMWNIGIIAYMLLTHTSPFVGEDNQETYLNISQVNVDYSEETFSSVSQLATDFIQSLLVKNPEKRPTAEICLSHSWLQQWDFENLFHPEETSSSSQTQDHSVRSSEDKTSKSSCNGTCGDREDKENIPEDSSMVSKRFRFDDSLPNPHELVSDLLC

MAPK9 = MAPK9 (Homo sapiens, UniProt P45984)
PAK7 = PAK7 (Homo sapiens, UniProt Q9P286)
BMX = molecular target: T3, BMX (Homo sapiens, UniProt P51813)
T3 sequence (P51813 1-675): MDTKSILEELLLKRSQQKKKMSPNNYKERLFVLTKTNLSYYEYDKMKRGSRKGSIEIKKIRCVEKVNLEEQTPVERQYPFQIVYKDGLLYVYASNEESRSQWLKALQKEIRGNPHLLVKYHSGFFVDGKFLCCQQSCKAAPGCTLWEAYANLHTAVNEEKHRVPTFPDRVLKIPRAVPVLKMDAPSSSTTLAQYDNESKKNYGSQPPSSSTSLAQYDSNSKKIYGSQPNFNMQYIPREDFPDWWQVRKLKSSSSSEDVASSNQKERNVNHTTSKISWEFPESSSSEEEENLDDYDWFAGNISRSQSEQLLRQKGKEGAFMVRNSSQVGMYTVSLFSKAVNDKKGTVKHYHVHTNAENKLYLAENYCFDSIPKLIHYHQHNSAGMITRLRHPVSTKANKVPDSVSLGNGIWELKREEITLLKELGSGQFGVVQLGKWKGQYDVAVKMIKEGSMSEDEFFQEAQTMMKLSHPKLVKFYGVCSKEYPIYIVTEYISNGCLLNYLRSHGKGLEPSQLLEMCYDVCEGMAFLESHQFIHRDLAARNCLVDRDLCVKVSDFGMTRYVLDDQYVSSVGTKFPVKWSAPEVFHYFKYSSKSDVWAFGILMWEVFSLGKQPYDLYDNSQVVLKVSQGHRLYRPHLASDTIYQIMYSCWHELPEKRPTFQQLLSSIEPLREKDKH

RPS6KA2 = RPS6KA2 (Homo sapiens, UniProt Q15349)
PLK1 = PLK1 (Homo sapiens, UniProt P53350)
PAK4 = PAK4 (Homo sapiens, UniProt O96013)
Sequence of PAK4 (O96013 whole entry): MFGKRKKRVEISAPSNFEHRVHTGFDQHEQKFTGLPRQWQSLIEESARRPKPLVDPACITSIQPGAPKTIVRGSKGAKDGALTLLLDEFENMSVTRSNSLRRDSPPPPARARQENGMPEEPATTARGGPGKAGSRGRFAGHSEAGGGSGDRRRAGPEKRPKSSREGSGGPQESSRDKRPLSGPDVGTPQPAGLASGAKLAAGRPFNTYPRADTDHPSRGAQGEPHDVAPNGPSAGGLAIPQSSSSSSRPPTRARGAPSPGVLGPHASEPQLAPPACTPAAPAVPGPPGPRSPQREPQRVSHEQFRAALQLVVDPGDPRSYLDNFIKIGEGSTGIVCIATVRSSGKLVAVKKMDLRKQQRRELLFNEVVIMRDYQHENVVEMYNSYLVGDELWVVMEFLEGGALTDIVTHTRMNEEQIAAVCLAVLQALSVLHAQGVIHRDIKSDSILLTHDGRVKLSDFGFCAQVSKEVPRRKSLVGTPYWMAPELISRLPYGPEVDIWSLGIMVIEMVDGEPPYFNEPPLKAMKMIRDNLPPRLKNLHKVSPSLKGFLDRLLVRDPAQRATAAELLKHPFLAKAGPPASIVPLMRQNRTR

Sequence of CHEK2 (O96017 whole entry): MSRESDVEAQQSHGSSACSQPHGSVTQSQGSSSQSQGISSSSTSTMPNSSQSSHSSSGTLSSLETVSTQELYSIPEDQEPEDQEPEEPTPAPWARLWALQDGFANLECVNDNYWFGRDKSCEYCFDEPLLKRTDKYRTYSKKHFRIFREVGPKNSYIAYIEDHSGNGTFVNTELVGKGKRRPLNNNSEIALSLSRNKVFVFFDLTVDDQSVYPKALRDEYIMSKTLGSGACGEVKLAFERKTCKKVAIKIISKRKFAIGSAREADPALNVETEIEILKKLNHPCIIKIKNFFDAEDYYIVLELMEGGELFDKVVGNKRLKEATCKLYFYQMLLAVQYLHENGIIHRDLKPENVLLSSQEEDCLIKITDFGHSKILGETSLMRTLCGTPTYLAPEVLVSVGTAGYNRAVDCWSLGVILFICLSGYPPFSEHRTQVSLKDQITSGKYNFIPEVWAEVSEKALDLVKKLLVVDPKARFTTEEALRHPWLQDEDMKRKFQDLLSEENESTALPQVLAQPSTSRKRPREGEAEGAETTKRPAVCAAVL
Sequence of PAK7 (Q9P286 whole entry): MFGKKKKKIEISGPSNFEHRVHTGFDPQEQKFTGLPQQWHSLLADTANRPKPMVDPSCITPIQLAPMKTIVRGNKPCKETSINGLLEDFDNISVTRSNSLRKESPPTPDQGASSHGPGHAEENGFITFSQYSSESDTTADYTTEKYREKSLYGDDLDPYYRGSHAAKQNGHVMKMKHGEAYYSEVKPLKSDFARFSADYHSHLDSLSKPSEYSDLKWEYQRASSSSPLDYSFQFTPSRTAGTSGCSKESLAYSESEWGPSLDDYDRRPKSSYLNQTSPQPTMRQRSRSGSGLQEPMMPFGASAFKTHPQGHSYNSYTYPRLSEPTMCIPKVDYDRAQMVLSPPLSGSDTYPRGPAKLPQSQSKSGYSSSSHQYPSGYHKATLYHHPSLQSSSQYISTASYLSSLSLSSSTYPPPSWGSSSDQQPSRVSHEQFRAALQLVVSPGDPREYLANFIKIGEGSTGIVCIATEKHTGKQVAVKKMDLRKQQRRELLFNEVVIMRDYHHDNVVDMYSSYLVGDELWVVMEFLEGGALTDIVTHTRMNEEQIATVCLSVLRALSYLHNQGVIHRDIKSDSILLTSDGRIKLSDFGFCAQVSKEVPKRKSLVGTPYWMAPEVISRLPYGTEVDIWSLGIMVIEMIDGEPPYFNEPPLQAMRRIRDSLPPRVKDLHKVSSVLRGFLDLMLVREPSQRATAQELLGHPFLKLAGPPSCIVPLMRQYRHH
Sequence of MAPK9 (P45984 whole entry): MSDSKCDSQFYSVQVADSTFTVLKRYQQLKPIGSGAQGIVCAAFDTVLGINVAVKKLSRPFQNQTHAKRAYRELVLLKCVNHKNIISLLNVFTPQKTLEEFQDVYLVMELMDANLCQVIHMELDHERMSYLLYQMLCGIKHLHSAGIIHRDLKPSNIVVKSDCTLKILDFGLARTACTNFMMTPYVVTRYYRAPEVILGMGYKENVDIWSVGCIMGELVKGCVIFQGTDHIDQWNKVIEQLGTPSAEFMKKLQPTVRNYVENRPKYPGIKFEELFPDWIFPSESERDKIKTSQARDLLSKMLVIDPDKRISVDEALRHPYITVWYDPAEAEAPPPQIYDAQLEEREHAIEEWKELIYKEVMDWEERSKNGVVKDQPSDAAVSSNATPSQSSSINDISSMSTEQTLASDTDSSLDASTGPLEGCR
Sequence of RPS6KA2 (Q15349 whole entry): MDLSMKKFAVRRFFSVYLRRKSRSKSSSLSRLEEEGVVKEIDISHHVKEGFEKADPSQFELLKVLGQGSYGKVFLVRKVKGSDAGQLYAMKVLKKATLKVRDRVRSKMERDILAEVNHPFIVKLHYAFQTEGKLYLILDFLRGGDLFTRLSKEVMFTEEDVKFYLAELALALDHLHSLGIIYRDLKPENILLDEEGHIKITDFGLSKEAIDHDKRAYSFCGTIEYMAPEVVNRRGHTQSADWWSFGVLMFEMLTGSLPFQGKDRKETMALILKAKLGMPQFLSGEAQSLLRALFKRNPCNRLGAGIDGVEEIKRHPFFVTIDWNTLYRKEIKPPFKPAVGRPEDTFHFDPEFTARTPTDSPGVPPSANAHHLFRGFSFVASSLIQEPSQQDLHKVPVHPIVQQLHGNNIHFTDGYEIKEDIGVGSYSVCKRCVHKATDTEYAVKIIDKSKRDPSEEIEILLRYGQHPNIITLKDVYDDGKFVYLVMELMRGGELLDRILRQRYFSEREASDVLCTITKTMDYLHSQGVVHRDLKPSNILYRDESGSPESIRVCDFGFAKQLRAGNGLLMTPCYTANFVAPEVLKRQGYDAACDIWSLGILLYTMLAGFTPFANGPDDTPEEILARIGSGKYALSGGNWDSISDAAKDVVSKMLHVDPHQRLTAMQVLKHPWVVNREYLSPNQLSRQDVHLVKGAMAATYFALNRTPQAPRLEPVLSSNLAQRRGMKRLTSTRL
Sequence of PLK1 (P53350 whole entry): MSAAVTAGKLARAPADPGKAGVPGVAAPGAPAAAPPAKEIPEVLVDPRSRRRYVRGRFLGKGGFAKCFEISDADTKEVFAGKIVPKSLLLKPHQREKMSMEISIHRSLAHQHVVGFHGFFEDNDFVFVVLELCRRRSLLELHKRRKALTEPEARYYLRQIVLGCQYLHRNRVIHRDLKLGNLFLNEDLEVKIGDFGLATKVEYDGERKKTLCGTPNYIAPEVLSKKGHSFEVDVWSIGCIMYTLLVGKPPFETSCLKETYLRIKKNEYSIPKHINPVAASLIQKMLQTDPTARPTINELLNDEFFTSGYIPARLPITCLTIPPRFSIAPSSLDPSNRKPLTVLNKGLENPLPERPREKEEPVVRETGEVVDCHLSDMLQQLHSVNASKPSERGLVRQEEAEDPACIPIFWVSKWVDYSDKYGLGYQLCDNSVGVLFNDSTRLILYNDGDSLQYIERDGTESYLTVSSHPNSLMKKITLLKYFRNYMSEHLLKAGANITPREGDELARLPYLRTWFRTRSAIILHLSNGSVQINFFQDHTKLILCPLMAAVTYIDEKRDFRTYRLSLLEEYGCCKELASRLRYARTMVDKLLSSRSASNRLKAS
Sequence of PIM2 (Q9P1W9 whole entry): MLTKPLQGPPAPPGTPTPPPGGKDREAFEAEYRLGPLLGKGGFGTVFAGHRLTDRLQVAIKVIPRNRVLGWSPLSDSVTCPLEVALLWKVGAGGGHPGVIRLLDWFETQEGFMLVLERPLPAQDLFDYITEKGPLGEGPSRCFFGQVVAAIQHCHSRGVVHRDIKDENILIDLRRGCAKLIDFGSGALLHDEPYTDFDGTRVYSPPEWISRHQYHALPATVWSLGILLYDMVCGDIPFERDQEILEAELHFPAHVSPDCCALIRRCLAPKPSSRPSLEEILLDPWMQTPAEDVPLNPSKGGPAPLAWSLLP

Structure (SMILES): Nc1nccc(-c2ccc3noc(-c4ccc(Cl)cc4)c3c2)n1 [compound 4, K00972]
- ΔTm inhibitor 4 (TTK): 1.7 °C
- ΔTm inhibitor 4 (PIM2): 2.1 °C
- ΔTm inhibitor 4 (CHEK2): 0.5 °C
- ΔTm inhibitor 4 (STK17B): 6.9 °C
- ΔTm inhibitor 4 (MAPK9): 0.9 °C
- ΔTm inhibitor 4 (PAK7): 0.6 °C
- ΔTm inhibitor 4 (BMX): 0.4 °C
- ΔTm inhibitor 4 (RPS6KA2): 1.0 °C
- ΔTm inhibitor 4 (PLK1): 0.4 °C
- ΔTm inhibitor 4 (PAK4): 1.5 °C

Structure (SMILES): CCN1/C(=C/C(C)=O)Sc2ccc(OC)cc21 [compound 2, TG003]
- ΔTm inhibitor 2 (TTK): 0.5 °C
- ΔTm inhibitor 2 (PIM2): 3.6 °C
- ΔTm inhibitor 2 (CHEK2): 0.1 °C
- ΔTm inhibitor 2 (STK17B): 1.0 °C
- ΔTm inhibitor 2 (MAPK9): 0.4 °C
- ΔTm inhibitor 2 (PAK7): -0.1 °C
- ΔTm inhibitor 2 (BMX): -0.1 °C
- ΔTm inhibitor 2 (RPS6KA2): 0.4 °C
- ΔTm inhibitor 2 (PLK1): 0.3 °C
- ΔTm inhibitor 2 (PAK4): 1.7 °C

Structure (SMILES): CC(=O)c1cccc(-c2cnc3ccc(NCC4CC4)nn23)c1 [compound 1, K00135]
- ΔTm inhibitor 1 (TTK): 2.7 °C
- ΔTm inhibitor 1 (PIM2): 4.7 °C
- ΔTm inhibitor 1 (CHEK2): 0.8 °C
- ΔTm inhibitor 1 (STK17B): 4.2 °C
- ΔTm inhibitor 1 (MAPK9): 0.8 °C
- ΔTm inhibitor 1 (PAK7): 0.4 °C
- ΔTm inhibitor 1 (BMX): 0.4 °C
- ΔTm inhibitor 1 (RPS6KA2): 2.7 °C
- ΔTm inhibitor 1 (PLK1): 2.0 °C
- ΔTm inhibitor 1 (PAK4): 1.5 °C
